Data on 2 compounds can be found in publication PMC5501782 (Scientific Reports, 2017).

“Also recorded” adds a separate entry of the source. Non-standard residues stand in square brackets, D forms with d. Residues, ends and D or L forms follow the SMILES beside them.

One data set relates to Coxsakievirus. The class given is cell-based.
The next data set concerns Enterovirus71. The class given is cell-based.
For data set [1], the system named is influenza virus (A/Puerto Rico/8/34, PR8) expressing green fluorescent protein (PR8-GFP). The data set is classed as cell-based.
The subject of data set [2] is PR8-GFP virus. The class given is cell-based, influenza A virus.
For data set [3], the system named is PR8-GFP virus. On the set-up: species or system influenza A virus.
In the next data set the test system is VSV (293T cells). The data set is classed as cell-based, vesicular stomatitis virus.
For a further data set, the system named is RSV (Hep2 cells). The data set is classed as cell-based, respiratory syncytial virus.
The test system of data set [4] is Coxsackievirus (HeLa cells). The class given is cell-based.
Data set [5] has as its system Vesicular stomatitis virus. As to conditions: 48 h.
A further data set deals with Newcastle disease virus. As to conditions: 48 h.
Data set [6] concerns Respiratory Syncytial Virus. As to conditions: 48 h.
In another data set the test system is Parainfluenza virus. Conditions: 48 h.
Data set [7] concerns Influenza virus (H1N1) A/Puerto Rico/8/34. As to conditions: Influenza virus A/Puerto Rico/8/34, 48 h.
Data set [8] has as its system Influenza virus (H5N2) A/bird/Korea/W81/2005. Conditions: Influenza virus A/bird/Korea/W81/2005, 48 h.
Data set [9] has as its system Influenza virus (H7N3) A/Aquatic bird/Korea/W44/2005. Conditions: 48 h.
For data set [10], the system named is Influenza virus (H9N2) A/Chicken/Korea/116/2004. Conditions: 48 h.
The test system of data set [11] is Porcine epidemic diarrhea virus. Conditions: 48 h.
In the next data set the test system is Herpes simplex virus. As to conditions: 48 h.
The subject of data set [12] is A/EM/Korea/W149/06 (W149, HPAI, H5N1). As to conditions: mouse, in vivo.
Another data set relates to autophagy. Conditions: cited from earlier work.

As for `CC(C)C[C@@H](NC(=O)[C@@H](CC(C)C)NC(=O)[C@@H](CC(N)=O)NC(=O)[C@H](NC(=O)[C@@H](Cc1ccccc1)NC(=O)CNC(=O)[C@@H](Cc1ccc(O)cc1)NC(=O)CNC(=O)[C@@H](CCCNC(=N)N)NC(=O)[C@@H](CCCCN)NC(=O)[C@@H](CCCCN)NC(=O)[C@@H](CCCNC(=N)N)NC(=O)[C@@H](CCCNC(=N)N)NC(=O)[C@@H](CCC(N)=O)NC(=O)[C@@H](CCCNC(=N)N)NC(=O)[C@@H](CCCNC(=N)N)NC(=O)[C@H](N)CCCNC(=N)N)C(C)C)C(=O)N[C@H](Cc1ccccc1)C(=O)N[C@H](CC(C)C)C(=O)N[C@@H](C(=O)N[C@@H](C(=O)N[C@H](CCC(=O)O)C(=O)O)C(C)C)C(C)C` [TAT-Kα2] (H-[dR][dR][dR][dQ][dR][dR][dK][dK][dR]G[dY]G[dF][dV][dN][dL][dL][dF][dL][dV][dV][dE]-OH), the IC50 (in general, the point on the concentration scale where inhibition reaches its midpoint) in the data set on Coxsakievirus is “No”; with Enterovirus71, “No”; in [5], 2.9 µM; in the data set with Newcastle disease virus it was 0.8 µM; in data set [6] it was 3.4 µM; with Parainfluenza virus, 2.4 µM. The IC50 in data set [7] was 0.5 µM; in data set [8], 0.8 µM; in data set [9] it was 1.2 µM; in data set [10], 0.7 µM; in data set [11] it was 3.5 µM; in the data set with Herpes simplex virus, 5.7 µM. The virucidal effect result (with Enterovirus71; in data set [4]) was “did not show any virucidal effects” in each case. Further, the “antiviral action at attachment step” value in data set [1] is listed as “inhibition of virus infection”. In addition, in data set [1], the “antiviral action at post-attachment step” value was “unable to inhibit virus infection”. In addition, the “antiviral action at pre-attachment step” value in [1] is given as “antiviral activity”. For the same compound, in [1], the “infection of MDCK cells by peptide-treated PR8-GFP” value was “strongly diminished”. The “infectivity of PR8-GFP virus” value in data set [1] is “dramatically suppressed; also recorded: no viral infection was detected”. For the same compound, in data set [1], the “reduction in the virus titer” value was “approximately 40%”. The virus transmission result in the data set on PR8-GFP virus [2] was “suppressed”. Further, the “infectivity of virus in positive fractions in vitro” value in the data set with PR8-GFP virus [3] is recorded as “did not”. Besides, the inhibition of infection entry with VSV (293T cells) and in the data set on RSV (Hep2 cells) was “inhibited” in each case. For the same compound, in the data set with MDCK cells, the “cytotoxicity or CPE” value is reported as “no cytotoxicity or CPE”. In addition, the “difference in body weight percentage among groups” value in [12] is “more than 20%”. The lung histopathology entry in data set [12] is “intact lung tissues”. Moreover, the lung virus titer result in [12] is reported as “no virus was detected”. This compound also gave a survival rate in data set [12] of 100%.

Regarding EVVLFLLNVF [Kα2], the autophagy induction entry in the data set on autophagy is “robust autophagy inducer”.
